Assay results: article PMC6905855, “Agonist-specific voltage-dependent gating of lysosomal two-pore Na^+ channels” (eLife, 2019)
“And” between values parts separate entries of the source, which are not always exact repeats. Equal values may be shown once. “Also recorded” adds a separate entry of the source.

Legend:
[1] = molecular target: T1, hTPC2 (Homo sapiens, UniProt Q8NHX9); assay: Whole-endolysosome recordings of ITPC2; format: biochemical; conditions: for Dose-dependent activation of TPC2 (normalized current): individual patches; for inactivation of ITPC2, I500ms / I10ms: @-120mV
T1 construct: expressed in transfected cells; host or cells: Cos1 and HEK293

[2] = molecular target: T2, hTPC1 (Homo sapiens, UniProt Q9ULQ1); assay: Whole-endolysosome recordings of ITPC1; format: biochemical
T2 construct: expressed in transfected cells; host or cells: Cos1
Description: It was therefore of interest to explore whether TCAs/LyNa-VAs could also act on TPC1. To investigate this, we used two different voltage paradigms. […] Second, we used a tail current paradigm to measure the amplitude of the peak inward current at −120 mV following prolonged steps to various potentials (Figure 4E).
Figure 4. […] HP = 0 mV. […] Dotted lines in A indicate where the currents were measured. […] Data are presented as Mean ± S.E.M (n = 3 patches). […] (G) Normalized I-V plots of basal voltage-dependent currents in WT TPC1- and TPC1^R540I-transfected cells. […] Figure 4—source data 1. […] Figure 4—figure supplement 1. […] (A) A voltage protocol that elicited ITPC1 tail currents as shown in Figure 4E (from −140 to 100 mV with a ∆V = 20 mV, 1 s with a 10 s inter-step interval). Arrows indicate where tail currents were measured. (B) A voltage protocol that elicited ITPC1 tail currents as shown in C. […] HP = 0 mV. […] (A) Basal whole-endolysosome ITPC1 (left) or ITPC1-R540I (right) was elicited by voltage steps (−140 to +100 mV with ΔV = 20 mV) in the absence of PI(3,5)P2 in TPC1-transfected Cos1 cells ([She et al., 2019]). Tail currents were elicited at −120 mV. (B) The effects of PI(3,5)P2 (0.3 µM) on ITPC1 (left) and ITPC1-R540I (right) step currents. […] A preconditioning voltage (+80 mV, 0.1 s) was applied before voltage steps starting from −140 to 100 mV (0.5 s, ∆V = 20 mV).
(§1) All TPC1 and TPC2 mutants were generated with a site-directed mutagenesis kit (Qiagen) using EGFP- human TPC1 and TPC2 as the templates. All constructs were confirmed by DNA sequencing.
Whole-endolysosome recordings were performed on manually isolated enlarged endolysosomes ([Wang et al., 2012]). In brief, a patch pipette was pressed against a cell and quickly pulled away to slice the cell membrane. Enlarged endolysosomes were released into a dish and identified by monitoring EGFP-TPC1/2 or the mCherry-TPC1/2 fluorescence. After formation of a gigaseal between the patch pipette and the enlarged endolysosome, capacitance transients were compensated. Voltage steps of several hundred mVs with millisecond duration were then applied to break into the vacuolar membrane. The whole-endolysosome configuration was verified by the re-appearance of capacitance transients after break-in.
Data were collected using an Axopatch 200A patch clamp amplifier, Digidata 1440, and pClamp 10.2 software (Axon Instruments). Whole-endolysosome currents were digitized at 10 kHz and filtered at 2 kHz. All experiments were conducted at room temperature (21–23°C), and all recordings were analyzed with pClamp 10.2, and Origin 8.0 (OriginLab, Northampton, MA). The permeability to cations (relative to PNa) was estimated based on following equations ([Lewis, 1979]) and Erev measurement under bi-ionic conditions:(1) PX/PNa=γNa/γX{[Na^+]Luminal/[X^+]Cytoplasmic}{exp([…])} (2) PCa/PNa=γNa/γCa{[Na^+]Cytoplasmic/[4[Ca^2+]Luminal}{exp(ErevF/RT)}{1+exp(ErevF/RT)} where R, T, F, Erev, and γ are, respectively, the gas constant, absolute temperature, Faraday constant, reversal potential, and activity coefficient. The liquid junction potentials were measured and corrected as described ([Neher, 1992]).

[3] = molecular target: T3, surface-expressing mutant TPC2 channel (TPC2^LL/AA) in HEK293 cells (Homo sapiens, UniProt Q8NHX9, L11A/L12A); assay: Whole-cell recordings of ITPC2-LL/AA; format: cell-based; conditions: for voltage-dependent inactivation of ITPC2, I1s / 0s: @-140mV, whole-cell
T3 construct: expressed in transfected cells; host or cells: HEK293
Source text: We therefore characterized the responses of TPC2 channels to TCAs in detail using electrophysiological methods. We first performed whole-cell recordings in HEK293 cells that were transfected with surface-expressed TPC2 mutant channels (TPC2-L^11L^12-AA; abbreviated as TPC2^LL/AA hereafter).
as §1
Cells were transfected with Lipofectamine 2000 (Invitrogen). After culture media were refreshed 18–24 hr post-transfection, cells were used for the electrophysiological assays 24–36 hr post-transfection.
All bath solutions were applied via a perfusion system that allowed complete solution exchange within a few seconds. […] Whole-cell currents were digitized at 10 kHz and filtered at 2 kHz.

[4] = PI(3,5)P2 0.3 µM, LyNa-VA1.2 100 µM, LyNA1 300 µM, individual tests
[5] = LyNA1 (300 µM)-induced whole-cell ITPC2-LL/AA, individual

T3 sequence (Q8NHX9 whole entry L11A/L12A): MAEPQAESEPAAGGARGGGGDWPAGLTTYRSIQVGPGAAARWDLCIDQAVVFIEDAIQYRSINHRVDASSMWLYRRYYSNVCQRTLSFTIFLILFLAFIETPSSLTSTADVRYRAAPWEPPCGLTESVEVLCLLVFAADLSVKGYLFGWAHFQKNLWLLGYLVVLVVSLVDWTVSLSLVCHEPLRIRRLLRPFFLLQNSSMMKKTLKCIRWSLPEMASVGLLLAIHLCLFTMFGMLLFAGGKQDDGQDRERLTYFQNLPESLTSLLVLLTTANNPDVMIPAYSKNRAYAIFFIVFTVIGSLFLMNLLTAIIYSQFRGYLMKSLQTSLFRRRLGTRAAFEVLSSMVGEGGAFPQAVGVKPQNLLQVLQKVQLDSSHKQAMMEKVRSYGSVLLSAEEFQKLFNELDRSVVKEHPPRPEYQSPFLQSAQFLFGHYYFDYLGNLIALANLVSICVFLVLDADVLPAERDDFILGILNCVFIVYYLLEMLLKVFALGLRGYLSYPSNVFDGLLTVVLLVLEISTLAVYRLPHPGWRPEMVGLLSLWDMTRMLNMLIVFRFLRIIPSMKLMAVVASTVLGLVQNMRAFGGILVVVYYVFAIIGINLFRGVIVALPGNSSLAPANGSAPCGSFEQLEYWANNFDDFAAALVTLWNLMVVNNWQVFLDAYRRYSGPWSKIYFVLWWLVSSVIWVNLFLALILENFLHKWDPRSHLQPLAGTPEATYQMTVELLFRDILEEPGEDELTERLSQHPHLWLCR
T1 sequence (Q8NHX9 whole entry): as the sequence (Q8NHX9 whole entry L11A/L12A) above, with A11L, A12L counted along it

Structure (SMILES): Nc1nc2ccc(OC(F)(F)F)cc2s1 [LyNA1, Riluzole]
- cation selectivity of induced whole-endolysosome ITPC2 (in words) [1]: highly selective for Na^+ over K^+
- voltage dependence of TPC2 activation (in words) [1]: voltage independent; also recorded: no apparent voltage-dependent activation
- Dose-dependent activation of TPC2 (normalized current) ([1]; 10 µM +10nM PI(3,5)P2): 0.03469 and -0.1321 and -0.1628
- Dose-dependent activation of TPC2 (normalized current) ([1]; 50 µM +10nM PI(3,5)P2): 0.02967 and -0.04581 and -0.07904
- Dose-dependent activation of TPC2 (normalized current) ([1]; 50 µM, absence of PI(3,5)P2): 0.02084 and 0.03963 and 0.0267
- Dose-dependent activation of TPC2 (normalized current) ([1]; 100 µM +10nM PI(3,5)P2): 0.3825 and 0.3197 and 0.06652
- Dose-dependent activation of TPC2 (normalized current) ([1]; 100 µM, absence of PI(3,5)P2): 0.1347 and 0.1166 and 0.2034 and 0.258 and 0.1062
- Dose-dependent activation of TPC2 (normalized current) ([1]; 150 µM +10nM PI(3,5)P2): 0.5952 and 0.5358 and 0.2713
- Dose-dependent activation of TPC2 (normalized current) ([1]; 150 µM, absence of PI(3,5)P2): 0.4553 and 0.5013 and 0.5031 and 0.7594 and 0.3882
- Dose-dependent activation of TPC2 (normalized current) ([1]; 300 µM +10nM PI(3,5)P2): 0.9432 and 0.8992 and 0.9659
- Dose-dependent activation of TPC2 (normalized current) ([1]; 300 µM, absence of PI(3,5)P2): 0.9388 and 0.9543
- Dose-dependent activation of TPC2 (normalized current) ([1]; 400 µM +10nM PI(3,5)P2): 1 (2×) and 1.003
- Dose-dependent activation of TPC2 (normalized current) ([1]; 400 µM, absence of PI(3,5)P2): 0.9725 and 0.9884 and 0.9899 and 0.9935 and 0.9997 and 0.9921
- EC50 ([1]; + PI(3,5)P2 (10 nM)): 175 ± 19 µM
- EC50 ([1]; - PI(3,5)P2): 181 ± 6 µM
- inactivation of ITPC2, I500ms / I10ms [1, 4]: 0.9047 and 1.003 and 0.9967 and 0.9738
- inactivation of ITPC2, I500ms / I10ms ([1]; mean): 0.9697
- combined effect with PI(3,5)P2 on whole-endolysosome ITPC2 (in words) ([1]; PI(3,5)P2 50 nM): additive but not synergistic activation; also recorded: Additive effects
- Rectification index of ITPC2, I+80mV/I-80mV [1, 4]: 0.903 and 1.02 and 0.912 and 0.8953
- Rectification index of ITPC2, I+80mV/I-80mV ([1]; PI(3,5)P2 0.3 µM, LyNa-VA1.2 100 µM, LyNA1 300 µM, mean): 0.93 ± 0.03 and 0.9325
- activation of whole-endolysosome ITPC2 (in words) ([1]; bath application, symmetric Na^+): readily activated ITPC2
- I@500ms/I@10ms (current decline at steady state) ([1]; voltage-step protocols, at all potentials): ~1.0
- effect on whole-endolysosome ITPC1 (in words) [2]: inhibited ITPC1
- voltage-dependent inactivation of ITPC2, I1s / 0s ([3]; individual recordings): 0.9086 and 1.046 and 0.9409
- voltage-dependent inactivation of ITPC2, I1s / 0s ([3]; mean): 0.9653
- Px/PNa+, Ca2+ [3, 5]: 0.09045 and 0.1026 and 0.1022 and 0.09007
- Px/PNa+, K+ [3, 5]: 0.05625 and 0.0959 and 0.1041
- Px/PNa+, Na+ [3, 5]: 0.8393 and 1.008 and 0.9746
- activation of whole-cell ITPC2-LL/AA (in words) ([3]; bath application, symmetric Na^+, 100 µM where stated): activated large and linear whole-cell currents
